Measurements reported in patent US10596296B2, “Heparan sulphates” (Agency for Science, Technology and Research, priority 2014, dated 2020).
pKd: −log10 of the molar value.

Key:
TGF-β1 [1] = target: T1, TGF-β1 (Homo sapiens, UniProt P01137); assay: SPR analysis of TGF-β1 binding to biotinylated heparin on SA chip
T1 construct: full length mature TGF-β1 is 112 amino acids in length
Protocol: Biotinylated heparin was prepared based on the protocol reported by Hernaiz et al. (33). Briefly, 20 mg of heparin was filter-sterilized (0.22 μm) in 1 ml of water and incubated with 8.6 μmol of N-hydroxysuccinimide-biotin (NHS-biotin) (Pierce) in 20 μl of dimethyl sulfoxide (DMSO) for 2 h at 4° C. The biotinylated heparin was then extensively dialyzed (7000 MWCO) to remove unreacted biotin. Immobilization of the biotinylated heparin onto a streptavidin (SA) sensor chip (GE Healthcare) was carried out using the immobilization wizard on the Biacore T100 (GE Healthcare) with a targeted immobilization level of approximately 40 response units (RUs). HBS-EP running buffer (10 mM HEPES, 150 mM NaCl, 3.0 mM EDTA, 0.05% (v/v) Tween 20, pH 7.4) was used for the immobilization.
TGF-β1-heparin interactions were effected by preparing a series of TGF-β1 protein samples (50 to 800 nM final concentration) diluted in HBS-EP-0.1 running buffer (0.1% instead of 0.05% (v/v) Tween 20). […] The sample solutions were then injected over the heparin-coated chip at a flow rate of 30 μl/min for 120 s, with HBS-EP-0.1 being subsequently passed over the chip for a further 1200 s to monitor TGF-β1 dissociation. After dissociation, the sensor surface on the chip was regenerated by 2 washes of 2 M NaCl injected at 30 μl/min for 60 s. The response was measured as a function of time (sensogram) at 25° C. […]

[2] = system: chondrogenic differentiation of hMSCs; assay: qPCR of day 3 chondrogenic micromass pellets (Example 1); format: cell-based, human; conditions: day 3; 10 ng/ml TGF-β1 with 10 μg/ml heparin
Protocol: Chondrogenic differentiation was carried out using a modified micromass culture system as described by Zhang et al. (32). Briefly, passage 4 hMSCs were harvested and resuspended in chemically defined chondrogenic media (PT-3003, Lonza) at 2×10^7 cells/ml. Droplets of 12.5 μl were then seeded into the middle of each well in a 24-well plate and left to adhere at 37° C. for 2 h, after which, 500 μl of chondrogenic media supplemented with either 10 ng/ml of TGF-β1 (100-21C, PeproTech) alone (Media) or TGF-β1 with 10 μg/ml of heparin (Sigma-Aldrich) (Media+Hep) was added to each well. The cell droplets coalesced into spherical masses after 24 h and the micromasses harvested on day 3. Human MSCs were cultured in 6-well plates in basal media for 24 h at a density of 10,000 cells/cm^2. TGF-β1 treatments were then prepared at either 1 ng/ml or 5 ng/ml alone or in the presence of either 10 μg/ml or 40 μg/ml of full length heparin, or 1 ng/ml of TGF-β1 with 10 μg/ml size-fractionated or selectively desulfated heparin, HS^PM, HS16+ or HS16−, and incubated at room temperature for 10 min before being added to the cells. Latent TGF-β1 (LTGF-β1) treatments were similarly prepared at 3.3 ng/ml alone or with 10 μg/ml of the various GAGs described above. For inhibitor studies, the cells were pre-treated for 30 min with 10 μM SB431542 (Sigma-Aldrich) or DMSO before treatment with TGF-β1. The cells were then subjected to the various TGF-β1 treatments for 1, 6 or 24 h and lysed in 2× Laemmli buffer, before being resolved on a 4-12% SDS-PAGE gel. Samples were then immunoblotted with antibodies against SMAD2/3 (#3102, Cell Signaling), phosphorylated SMAD2 (pSMAD2, #3108, Cell Signaling), phosphorylated SMAD3 (pSMAD3, #9520, Cell Signaling) and actin (MAB1501R, Millipore). Densitometry was carried out using Quantity One software (version 4.6.6, Bio-Rad). Total RNA was isolated from chondrogenic micromass pellets using TRIZOL reagent (Invitrogen, Life Technologies) according to the manufacturer's protocol. Reverse transcription was carried out on 1 μg RNA using the SuperScript® VILO™ cDNA Synthesis Kit (Invitrogen, Life Technologies) following the manufacturer's instructions, with the incubation at 42° C. being carried out for 2 h instead of 1 h. Each qPCR contained 40 ng cDNA, 1 μl TaqMan® primer-probe mix per gene, and 10 μl Taqman® Fast Universal PCR Master Mix (Applied Biosystems, Life Technologies) in a final volume of 20 μl. Thermal cycling conditions were 95° C. for 20 s, followed by 45 cycles of 95° C. for 3 s and 60° C. for 30 s. Each qPCR was run in duplicate and gene expression was normalized to HPRT1 expression to obtain the ΔCt value. […] Relative expression levels for each primer set were expressed as fold changes by the 2^−ΔΔCt method (36). […]

TGF-β1 [3] = target: T1, TGF-β1; assay: Differential scanning fluorimetry (DSF) of TGF-β1; format: binding; conditions: TGF-β1 2.5 μM, DTT 10 mM, heparin 25 μM
Protocol: DSF was performed on a 7500 Fast Real PCR System (software version 1.4, Applied Biosystems), as described previously (34,35). TGF-β1 (2.5 μM) was tested with or without heparin (25 μM). To facilitate the melting of TGF-β1, 10 mM of dithiothreitol (DTT) was added to the reaction mix. Experiments were run as previously described (34). First derivatives of the melting curves were calculated using Origin 7 (OriginLab Corp.) to determine the melting temperature of TGF-β1 under the various conditions.

T1 sequence (P01137 279-390 limits assumed): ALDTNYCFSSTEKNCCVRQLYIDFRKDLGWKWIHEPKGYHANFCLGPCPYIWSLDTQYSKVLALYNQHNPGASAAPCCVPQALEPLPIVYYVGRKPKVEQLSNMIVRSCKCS

With heparin the “TGF-β1 binding to heparin immobilized on Biacore SA-chip” value (TGF-β1 [1]) was “bound in a dose-dependent manner”, the pKd (TGF-β1 [1]; TGF-β1 50 to 800 nM injected over heparin-coated SA chip) was roughly 6.32 and the “COMP mRNA transcripts relative to Media (TGF-β1 alone)” value [2] was roughly 5 fold. For the same substance, the “SOX9 mRNA transcripts relative to Media (TGF-β1 alone)” value [2] was roughly 5 fold and the “melting temperature of TGF-β1 upon addition of heparin” value (TGF-β1 [3]) was 47.5 °C.
